Consider 33 compounds from patent US9718782B2, “TrkA kinase inhibitors, compositions and methods thereof” (MERCK SHARP & DOHME CORP, priority 2013, dated 2017).

Structures are written as SMILES.

The assay addresses T1, TrkA receptor (Homo sapiens, UniProt P04629).
T1 construct: host or cells: U2OS (PathHunter, 'TrkA p75' cells)
The experiment in a line: DiscoverX PathHunter TrkA functional assay (NGF-stimulated U2OS cells). In kind it is cell-based. Particulars: U2OS cells expressing TrkA-Prolink fusion and Shc1-EA; compound 1 hour, then EC80 NGF 3 hours; luminescence. As for the experimental part:
TrkA functional activity was measured using a DiscoverX PathHunter assay. In this assay, U2OS cells are express TrkA receptor as a fusion with the weakly complementing fragment of B-galactosidase, which DiscoverX calls “Prolink (PK)”; additionally, Shcl is fused with a larger fragment, which is called “Enzyme Acceptor (EA)”. Activation of the TrkA receptor, upon NGF addition, results in the kinase domain being phosphorylated, resulting in subsequent recruitment of Shcl-EA protein. That recruitment results in an active B-galactosidase enzyme that is detected by addition of a chemiluminescent substrate.
All reagents were purchased from DiscoverX, except for the receptor agonists (NGF, BDNF, NT3) which were purchased from Peprotech. Cells were expanded and frozen into cryovials (TrkA p75 @passage 13, 1.5×10^7 cells/vial; TrkC p75 @passage 11, 1.5×10^7 cells/vial in InVitrogen Recovery Cell Freezing media), and stored in the vapor phase of liquid nitrogen, and thawed immediately before use. Thawed cells were added to a 384-well plate (BD Falcon 384-well white/clear, TC surface 120 uL assay plates (353963), 20 uL of 0.375e6 cells/mL=>7500 cells/well), and allowed to incubate overnight. Compound (10 mM starting dose: 202.5 nL compound yielding 0.81% DMSO final in total assay volume and starting doses 81 uM) was added the following morning and allowed to incubate on cells for 1 hour. Then, 5 uL EC80 of agonist (NGF for TrkA; BDNF for TrkB; NT3 for TrkC) was added and allowed to incubate for 3 hours at room temperature. DiscoverX PathHunter detection reagent is added (12 uL to plate and components diluted in parts as per kit instructions) and the plate is further incubated for 1 hour in the dark. The plate is read via luminescence on the Perkin Elmer Envision.

T1 sequence (P04629 33-796): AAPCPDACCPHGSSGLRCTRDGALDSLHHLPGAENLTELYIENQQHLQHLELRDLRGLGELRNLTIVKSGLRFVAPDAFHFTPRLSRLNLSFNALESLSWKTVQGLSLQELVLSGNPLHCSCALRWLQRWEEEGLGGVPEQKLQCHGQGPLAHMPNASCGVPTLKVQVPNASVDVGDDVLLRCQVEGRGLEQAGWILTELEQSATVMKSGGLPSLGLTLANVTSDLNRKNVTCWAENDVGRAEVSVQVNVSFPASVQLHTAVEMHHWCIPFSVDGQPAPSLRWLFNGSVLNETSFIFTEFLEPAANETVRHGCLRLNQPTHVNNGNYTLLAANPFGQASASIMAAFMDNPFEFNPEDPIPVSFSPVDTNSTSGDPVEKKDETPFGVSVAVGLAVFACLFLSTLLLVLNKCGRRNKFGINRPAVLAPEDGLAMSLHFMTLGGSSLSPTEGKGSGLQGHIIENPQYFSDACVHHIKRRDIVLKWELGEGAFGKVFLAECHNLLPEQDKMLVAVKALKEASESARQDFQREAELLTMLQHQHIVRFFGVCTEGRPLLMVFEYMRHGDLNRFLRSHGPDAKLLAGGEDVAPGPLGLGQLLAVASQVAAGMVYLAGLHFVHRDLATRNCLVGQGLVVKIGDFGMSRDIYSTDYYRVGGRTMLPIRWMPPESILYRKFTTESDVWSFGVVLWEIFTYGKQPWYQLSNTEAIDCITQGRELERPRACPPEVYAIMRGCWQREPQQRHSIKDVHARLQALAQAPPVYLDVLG

Usually IC50 stands for the concentration that inhibits the measured activity by half. Read a low IC50 as higher potency. `CC(C)(C)c1cc(NC(=O)NC2c3ccccc3-c3ccccc32)n(-c2ccccc2)n1` [Compound 16, 1-(3-tert-butyl-1-phenyl-1H-pyrazol-5-yl)-3-(9H-fluoren-9-yl)urea] had an IC50 of 69 nM.

`Cn1nc(-c2ccccc2)cc1NC(=O)NC1c2ccccc2-c2ccccc21` [Compound 56, 1-(9H-fluoren-9-yl)-3-(1-methyl-3-phenyl-1H-pyrazol-5-yl)urea]: inhibition was half-maximal at 410 nM (IC50).

On to `O=C(Nc1cccnc1)NC1c2ccccc2-c2ccccc21` [Compound 66, 1-(9H-fluoren-9-yl)-3-pyridin-3-ylurea], for which it took 3500 nM to reach half-maximal inhibition (IC50).

For the compound `O=C(Nc1cccnc1-c1cccnc1)NC1c2ccccc2-c2ccccc21` [Compound 51, 1-(2,3′-bipyridin-3-yl)-3-(9H-fluoren-9-yl)urea], the half-maximal inhibitory concentration (IC50) is 3000 nM.

On to `Cc1nc(-c2ccccc2)c(NC(=O)NC2c3ccccc3-c3ccccc32)n1C` [Compound 58, 1-(1,2-dimethyl-4-phenyl-1H-imidazol-5-yl)-3-(9H-fluoren-9-yl)urea], for which the IC50 was determined as 190 nM.

The compound `O=C(Nc1cccnc1-c1cccc(F)c1)NC1c2ccccc2-c2ccccc21` [Compound 75, 1-(9H-fluoren-9-yl)-3-[2-(3-fluorophenyl)pyridin-3-yl]urea] gave an IC50 of 190 nM.

As for `Cc1cc(NC(=O)NC2c3ccccc3-c3ccccc32)n(-c2ccccn2)n1` [Compound 39, 1-(9H-fluoren-9-yl)-3-(3-methyl-1-pyridin-2-yl-1H-pyrazol-5-yl)urea], the half-maximal inhibitory concentration (IC50) was found to be 3000 nM.

`Cc1onc(-c2ccccc2)c1NC(=O)NC1c2ccccc2-c2ccccc21` [Compound 8, 1-(9H-fluoren-9-yl)-3-(5-methyl-3-phenylisoxazol-4-yl)urea] gave an IC50 of 190 nM.

As to `O=C(Nc1ccccc1N1CCOCC1)NC1c2ccccc2-c2ccccc21` [Compound 35, 1-(9H-fluoren-9-yl)-3-(2-morpholin-4-ylphenyl)urea], the midpoint of inhibition, the IC50, lay at 4000 nM.

As for `O=C(Nc1cnccc1-c1ccccc1)NC1c2ccccc2-c2ccccc21` [Compound 12, 1-(9H-fluoren-9-yl)-3-(4-phenylpyridin-3-yl)urea], the IC50 came to 280 nM.

`Cc1ccc(NC(=O)NC2c3ccccc3-c3ccccc32)c(-c2ccc(F)cc2)n1` [Compound 5, 1-(9H-fluoren-9-yl)-3-[2-(4-fluorophenyl)-6-methylpyridin-3-yl]urea] came in with a half-maximal inhibitory concentration (IC50) of 230 nM.

Compound `Cc1nnc(-c2cccc(NC(=O)NC3c4ccccc4-c4ccccc43)c2)n1C` [Compound 86, 1-[3-(4,5-dimethyl-4H-1,2,4-triazol-3-yl)phenyl]-3-(9H-fluoren-9-yl)urea] returned an IC50 of 250 nM.

`O=C(Nc1cccc(-n2cnnc2)c1)NC1c2ccccc2-c2ccccc21` [Compound 34, 1-(9H-fluoren-9-yl)-3-[3-(4H-1,2,4-triazol-4-yl)phenyl]urea] had an IC50 of 1100 nM.

Compound `O=C(Nc1cccnc1-c1ccoc1)NC1c2ccccc2-c2ccccc21` [Compound 55, 1-(9H-fluoren-9-yl)-3-(2-furan-3-ylpyridin-3-yl)urea] yielded an IC50 of 390 nM.

Turning to `Cc1nccn1-c1cccc(NC(=O)NC2c3ccccc3-c3ccccc32)c1` [Compound 38, 1-(9H-fluoren-9-yl)-3-[3-(2-methyl-1H-imidazol-1-yl)phenyl]urea], the IC50 stood at 3000 nM.

As for `O=C(Nc1ccnn1-c1ccccc1)NC1c2ccccc2-c2ccccc21` [Compound 14, 1-(9H-fluoren-9-yl)-3-(1-phenyl-1H-pyrazol-5-yl)urea], half-maximal inhibition (IC50) was put at 120 nM.

Take `Cn1cnnc1-c1cccc(NC(=O)NC2c3ccccc3-c3ccccc32)c1` [Compound 42, 1-(9H-fluoren-9-yl)-3-[3-(4-methyl-4H-1,2,4-triazol-3-yl)phenyl]urea]: inhibition was half-maximal at 110 nM (IC50).

In turn, `Cc1cnc(-c2cccc(NC(=O)NC3c4ccccc4-c4ccccc43)c2)o1` [Compound 62, 1-(9H-fluoren-9-yl)-3-[3-(5-methyl-1,3-oxazol-2-yl)phenyl]urea] returned an IC50 of 1300 nM.

With `O=C(Nc1conc1-c1ccccc1)NC1c2ccccc2-c2ccccc21` [Compound 70, 1-(9H-fluoren-9-yl)-3-(3-phenylisoxazol-4-yl)urea], the IC50 is 2200 nM.

The compound `O=C(Nc1cc(-c2ccccc2)nn1-c1ccccc1)NC1c2ccccc2-c2ccccc21` [Compound 15, 1-(1,3-diphenyl-1H-pyrazol-5-yl)-3-(9H-fluoren-9-yl)urea] yielded a 50% inhibitory concentration (IC50) of 3000 nM.

For `Cn1ccnc1-c1cc(NC(=O)NC2c3ccccc3-c3ccccc32)n(C)n1` [Compound 85, 1-(9H-fluoren-9-yl)-3-[1-methyl-3-(1-methyl-1H-imidazol-2-yl)-1H-pyrazol-5-yl]urea], the IC50 stood at 100 nM.

As to `Cc1ccc(NC(=O)NC2c3ccccc3-c3ccccc32)c(F)n1` [Compound 27, 1-(9H-fluoren-9-yl)-3-(2-fluoro-6-methylpyridin-3-yl)urea], the IC50 came out at 3200 nM.

`CN(C)C(=O)c1cccc(NC(=O)NC2c3ccccc3-c3ccccc32)c1` [Compound 61, 3-[(9H-fluoren-9-ylcarbamoyl)amino]-N,N-dimethylbenzamide] gave a half-maximal inhibitory concentration (IC50) of 670 nM.

Turning to `Cn1ccnc1-c1cncc(NC(=O)NC2c3ccccc3-c3ccccc32)c1` [Compound 82, 1-(9H-fluoren-9-yl)-3-[5-(1-methyl-1H-imidazol-2-yl)pyridin-3-yl]urea], half-maximal inhibition (IC50) was put at 260 nM.

`Cn1ccnc1-c1cccc(NC(=O)NC2c3ccccc3-c3ccccc32)c1` [Compound 63, 1-(9H-fluoren-9-yl)-3-[3-(l-methyl-1H-imidazol-2-yl)phenyl]urea] displayed an IC50 of 96 nM.

The compound `O=C(Nc1c(-c2ccncc2)nc2ccccn12)NC1c2ccccc2-c2ccccc21` [Compound 69, 1-(9H-fluoren-9-yl)-3-(2-pyridin-4-ylimidazo[1,2-a]pyridin-3-yl)urea] yielded an IC50 of 770 nM.

`CN1CCN(Cc2ccccc2NC(=O)NC2c3ccccc3-c3ccccc32)CC1` [Compound 36, 1-(9H-fluoren-9-yl)-3-{2-[(4-methylpiperazin-1-yl)methyl]phenyl}urea] gave an IC50 of 3000 nM.

Regarding `Cn1cnc(-c2ccccc2)c1NC(=O)NC1c2ccccc2-c2ccccc21` [Compound 22, 1-(9H-fluoren-9-yl)-3-(1-methyl-4-phenyl-1H-imidazol-5-yl)urea], the IC50 amounted to 310 nM.

For the compound `CCc1nnc(-c2cccc(NC(=O)NC3c4ccccc4-c4ccccc43)c2)o1` [Compound 60, 1-[3-(5-ethyl-1,3,4-oxadiazol-2-yl)phenyl]-3-(9H-fluoren-9-yl)urea], the 50% inhibitory concentration (IC50) was 560 nM.

Take `Cc1ncc(NC(=O)NC2c3ccccc3-c3ccccc32)c(-c2ccccc2)n1` [Compound 4, 1-(9H-fluoren-9-yl)-3-(2-methyl-4-phenylpyrimidin-5-yl)urea]: the concentration for half-maximal inhibition (IC50) worked out at 82 nM.

`Cc1ccccc1-n1nc(C(C)(C)C)cc1NC(=O)NC1c2ccccc2-c2ccccc21` [Compound 18, 1-[3-tert-butyl-1-(2-methylphenyl)-1H-pyrazol-5-yl]-3-(9H-fluoren-9-yl)urea] displayed an IC50 of 850 nM.

Turning to `Cn1ncnc1-c1cncc(NC(=O)NC2c3ccccc3-c3ccccc32)c1` [Compound 74, 1-(9H-fluoren-9-yl)-3-[5-(1-methyl-1H-1,2,4-triazol-5-yl)pyridin-3-yl]urea], half-maximal inhibition (IC50) was put at 990 nM.

Regarding `Cn1ncc(-c2ccccc2)c1NC(=O)NC1c2ccccc2-c2ccccc21` [Compound 9, 1-(9H-fluoren-9-yl)-3-(1-methyl-4-phenyl-1H-pyrazol-5-yl)urea], the half-maximal inhibitory concentration (IC50) was determined as 530 nM.
